Test results published in PubChem BioAssay AID248 (DTP/NCI, 2004).
Where “and” joins values, the source holds several entries; their conditions need not be identical. Identical values can stand only once. Toxic doses and inconclusive results are not listed. Cut-off read from the data, not from the text of the source: active = T/C of 150% or more; inactive = T/C below 125%. Peptide text beside a SMILES is read from it.

Test system: L1210 leukemia ip in BDF1 mice, survival T/C
Assay: NCI In Vivo Anticancer Drug Screen. Data for tumor model L1210 Leukemia (intraperitoneal) in B6D2F1 (BDF1) mice
Details: endpoint: mean survival time, higher = longer survival
Outline: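 Antitumor effect is assessed in tumor-bearing animals. Survival in the compound arm is compared with a vehicle-dosed control arm and expressed as their quotient.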

[1] = dose: 100.0 mg/kg/injection, schedule: Q04DX002 (ip), vehicle: Klucel (hydroxypropylcellulose) (HPC)
[2] = dose: 200.0 mg/kg/injection, schedule: Q04DX002 (ip), vehicle: Klucel (hydroxypropylcellulose) (HPC)
[3] = dose: 400.0 mg/kg/injection, schedule: Q04DX002 (ip), vehicle: Klucel (hydroxypropylcellulose) (HPC)
[4] = dose: 100.0 mg/kg/injection, schedule: Q04DX003 (ip), vehicle: saline with Tween-80
[5] = dose: 200.0 mg/kg/injection, schedule: Q04DX003 (ip), vehicle: saline with Tween-80
[6] = dose: 100.0 mg/kg/injection, schedule: Q04DX003 (ip), vehicle: Klucel (hydroxypropylcellulose) (HPC)
[7] = dose: 200.0 mg/kg/injection, schedule: Q04DX003 (ip), vehicle: Klucel (hydroxypropylcellulose) (HPC)
[8] = dose: 400.0 mg/kg/injection, schedule: Q04DX003 (ip), vehicle: Klucel (hydroxypropylcellulose) (HPC)
[9] = dose: 100.0 mg/kg/injection, schedule: Q01DX009 (ip), vehicle: Klucel (hydroxypropylcellulose) (HPC)
[10] = dose: 100.0 mg/kg/injection, schedule: Q01DX001 (ip), vehicle: saline with Tween-80
[11] = dose: 100.0 mg/kg/injection, schedule: Q04DX003 (ip), vehicle: saline
[12] = dose: 200.0 mg/kg/injection, schedule: Q04DX003 (ip), vehicle: saline
[13] = dose: 400.0 mg/kg/injection, schedule: Q04DX003 (ip), vehicle: saline

Measured: T/C

CC(=O)OC(C)C(C)C(=O)OCC12C3CC4(C)C(=CCC5C6(C)CCC(OC7OC(C(=O)O)C(OC8OC(CO)C(O)C(O)C8O)C(O)C7OC7OCC(O)C(O)C7O)C(C)(CO)C6CCC54C)C1CC(C)(C)C(O3)C2O (stereo not drawn)
inactive: dose: 5.0 mg/kg/injection, schedule: Q01DX001 (sc), vehicle: steriod suspending solution 105 % of control | dose: 50.0 mg/kg/injection, schedule: Q01DX001 (sc), vehicle: steriod suspending solution 112 % of control

CN(C)c1ccc(/C=N\NC(=O)c2ccco2)cc1
inactive: dose: 200.0 mg/kg/injection, schedule: Q01DX001 (ip), vehicle: other 93 % of control | dose: 400.0 mg/kg/injection, schedule: Q01DX001 (ip), vehicle: other 90 % of control

CC(=O)/C=C1\C(=O)Nc2ccccc21
inactive: [1] 104 % of control | [2] 89 % of control | [3] 91 % of control

Cc1cc(Br)cc(C(=O)Cl)c1O
inactive: dose: 100.0 mg/kg/injection, schedule: Q04DX002 (ip), vehicle: saline with Tween-80 92 % of control | dose: 200.0 mg/kg/injection, schedule: Q04DX002 (ip), vehicle: saline with Tween-80 96 % of control | dose: 400.0 mg/kg/injection, schedule: Q04DX002 (ip), vehicle: saline with Tween-80 100 % of control

O=S(=O)(c1ccc(O)c(F)c1)c1ccc(O)c(F)c1
inactive: dose: 100.0 mg/kg/injection, schedule: Q04DX002 (ip), vehicle: gum acacia 90 % of control | dose: 200.0 mg/kg/injection, schedule: Q04DX002 (ip), vehicle: gum acacia 101 % of control

O=C1CCCCC1C(=O)C(F)(F)C(F)(F)C(F)(F)F (stereo not drawn)
inactive: dose: 90.0 mg/kg/injection, schedule: Q01DX Z (ip), vehicle: methylcellulose (MC) 97 % of control | dose: 150.0 mg/kg/injection, schedule: Q01DX Z (ip), vehicle: methylcellulose (MC) 102 % of control | dose: 222.0 mg/kg/injection, schedule: Q01DX Z (ip), vehicle: methylcellulose (MC) 97 % of control | dose: 333.0 mg/kg/injection, schedule: Q01DX Z (ip), vehicle: methylcellulose (MC) 102 % of control

O=C(CCCN1CC=C(N2CCc3ccccc32)CC1)c1ccc(F)cc1
inactive: [4] 102 % of control | [5] 102 % of control

COc1cc(OC)c(N=Cc2ccc([N+](=O)[O-])s2)cc1Cl
inactive: [6] 101 % of control | [7] 101 % of control | [8] 95 % of control

COc1ccc(C(CC(=O)O)c2ccccc2)cc1 (stereo not drawn)
inactive: dose: 100.0 mg/kg/injection, schedule: Q01DX001 (ip), vehicle: saline 94 % of control | dose: 200.0 mg/kg/injection, schedule: Q01DX001 (ip), vehicle: saline 93 % of control | dose: 400.0 mg/kg/injection, schedule: Q01DX001 (ip), vehicle: saline 100 % of control

CC(=O)CC(=O)Nc1ccccn1
inactive: [6] 97 % of control | [7] 101 % of control | [8] 98 % of control

CCOC(=O)C(C(=O)OCC)C(=O)c1cc(-c2ccc(Cl)c(Cl)c2)nc2c(Cl)cc(Cl)cc12
inactive: dose: 50.0 mg/kg/injection, schedule: Q01DX009 (ip), vehicle: Klucel (hydroxypropylcellulose) (HPC) 98 % of control | [9] 104 % of control | [6] 101 % of control | [7] 109 % of control

C(=N/Nc1ccccn1)/c1cccnc1
inactive: [10] 112 % of control

Cc1cc(C)c(C[N+](C)(C)C)c(C)c1C
inactive: dose: 50.0 mg/kg/injection, schedule: Q01DX001 (ip), vehicle: saline 102 % of control

NC(CCC(=O)O)C(=O)NC(CO)C(=O)O (stereo not drawn) (H-Glu-Ser-OH; configuration not given here)
inactive: [10] 92 % of control | dose: 200.0 mg/kg/injection, schedule: Q01DX001 (ip), vehicle: saline with Tween-80 89 % of control

O=C(NCc1ccccc1)C(Cc1ccccc1)(Cc1ccccc1)C(=O)NCc1ccccc1
inactive: dose: 100.0 mg/kg/injection, schedule: Q01DX001 (ip), vehicle: carboxymethylcellulose (CMC) 92 % of control | dose: 200.0 mg/kg/injection, schedule: Q01DX001 (ip), vehicle: carboxymethylcellulose (CMC) 90 % of control | dose: 400.0 mg/kg/injection, schedule: Q01DX001 (ip), vehicle: carboxymethylcellulose (CMC) 92 % of control

Cc1cc(=O)[nH]c(/N=C(\N)Nc2ccc(Cl)cc2)n1
inactive: dose: 100.0 mg/kg/injection, schedule: Q04DX002 (ip), vehicle: saline 93 % of control | dose: 200.0 mg/kg/injection, schedule: Q04DX002 (ip), vehicle: saline 99 % of control | dose: 400.0 mg/kg/injection, schedule: Q04DX002 (ip), vehicle: saline 96 % of control

CC1(C)CC(=O)c2ccccc21
inactive: dose: 25.0 mg/kg/injection, schedule: Q01DX009 (ip), vehicle: saline 101 % of control | dose: 50.0 mg/kg/injection, schedule: Q01DX009 (ip), vehicle: saline 94 % of control and 109 % of control | dose: 100.0 mg/kg/injection, schedule: Q01DX009 (ip), vehicle: saline 101 % of control and 102 % of control | [11] 100 % of control | dose: 200.0 mg/kg/injection, schedule: Q01DX009 (ip), vehicle: saline 104 % of control | [12] 96 % of control | [13] 102 % of control

CC(C)(C)C(=O)CC(=O)C(C)(C)C.CC(C)(C)C(=O)CC(=O)C(C)(C)C.CC(C)(C)C(=O)CC(=O)C(C)(C)C.[Eu]
inactive: [1] 97 % of control | [2] 106 % of control | [3] 87 % of control

CCCCCC(C)O[Si](C)c1cccc(C)c1 (stereo not drawn)
inactive: [4] 107 % of control | [5] 98 % of control | dose: 400.0 mg/kg/injection, schedule: Q04DX003 (ip), vehicle: saline with Tween-80 102 % of control

CC(=O)CCC(C)N=Cc1ccc(N(C)C)cc1 (stereo not drawn)
inactive: [11] 92 % of control | [12] 91 % of control | [13] 89 % of control

Cc1ccc(C(CCC#N)OC(C)C)cc1 (stereo not drawn)
inactive: [9] 95 % of control | [6] 96 % of control | dose: 200.0 mg/kg/injection, schedule: Q01DX009 (ip), vehicle: Klucel (hydroxypropylcellulose) (HPC) 92 % of control | [7] 101 % of control | dose: 400.0 mg/kg/injection, schedule: Q01DX009 (ip), vehicle: Klucel (hydroxypropylcellulose) (HPC) 97 % of control | [8] 92 % of control
